Common to all, as to format: functional
Experiment [1] in a line: Growth inhibition of human HOP92 cells at 10 uM after 48 hrs by SRB assay. As to conditions: HOP-92, 48 h, read-out: GI. (In general: The SRB assay estimates cell density from bound dye.)
Another experiment concerns NCI-H226. Description: Growth inhibition of human NCI-H226 cells at 10 uM after 48 hrs by SRB assay. As to conditions: NCI-H226, 48 h, read-out: GI.
A further experiment relates to NCI-H522. Briefly: Growth inhibition of human NCI-H522 cells at 10 uM after 48 hrs by SRB assay. The note with it: NCI-H522, 48 h, read-out: GI.
A short description of experiment [2]: Growth inhibition of human COLO205 cells at 10 uM after 48 hrs by SRB assay. The note with it: COLO 205, 48 h, read-out: GI.
A short description of experiment [3]: Growth inhibition of human HCT116 cells at 10 uM after 48 hrs by SRB assay. As to conditions: HCT-116, 48 h, read-out: GI.
Another experiment relates to HT-29. Description: Growth inhibition of human HT-29 cells at 10 uM after 48 hrs by SRB assay. As to conditions: HT-29, 48 h, read-out: GI.
Experiment [4] can be described thus: Growth inhibition of human SW620 cells at 10 uM after 48 hrs by SRB assay. The note with it: SW-620, 48 h, read-out: GI.
A short description of experiment [5]: Growth inhibition of human SF268 cells at 10 uM after 48 hrs by SRB assay. As to conditions: SF-268, 48 h, read-out: GI.
Experiment [6] is described as follows: Growth inhibition of human SF295 cells at 10 uM after 48 hrs by SRB assay. As to conditions: SF-295, 48 h, read-out: GI.
Another experiment deals with U-251. Briefly: Growth inhibition of human U251 cells at 10 uM after 48 hrs by SRB assay. The note with it: U-251, 48 h, read-out: GI.
Experiment [7] in a line: Growth inhibition of human LOXIMVI cells at 10 uM after 48 hrs by SRB assay. The note with it: LOX IMVI, read-out: GI.
The nature of experiment [8]: Growth inhibition of human OVCAR3 cells at 10 uM after 48 hrs by SRB assay. The note with it: OVCAR-3, 48 h, read-out: GI.
Experiment [9] in a line: Growth inhibition of human OVCAR5 cells at 10 uM after 48 hrs by SRB assay. As to conditions: OVCAR-5, 48 h, read-out: GI.
The nature of experiment [10]: Growth inhibition of human SKOV3 cells at 10 uM after 48 hrs by SRB assay. The note with it: SK-OV-3, 48 h, read-out: GI.
Experiment [11] in a line: Growth inhibition of human TK10 cells at 10 uM after 48 hrs by SRB assay. The note with it: TK-10, 48 h, read-out: GI.
A short description of experiment [12]: Growth inhibition of human Hs 578T cells at 10 uM after 48 hrs by SRB assay. The note with it: read-out: GI.
Experiment [13] is described as follows: Growth inhibition of human BT549 cells at 10 uM after 48 hrs by SRB assay. The note with it: BT-549, 48 h, read-out: GI.

Molecules are shown by their SMILES.

Turning to `Clc1ccc(Nc2nccc(Nc3ccc4[nH]ncc4c3)n2)cc1`, the inhibition of growth at 10 µM amounted to 101% in [1]; 72% in the experiment with NCI-H226; 79% in the experiment on NCI-H522; 58% in experiment [2]; 61% in [3]; 83% with HT-29. In addition, the inhibition of growth at 10 µM in experiment [4] was 67%; in [5] it was 40%; in experiment [6] it was 29%; with U-251 it was 41%; in experiment [7] it was 55%; in experiment [8], 48%. For the same compound, the inhibition of growth at 10 µM turned out to be 35% in [9]; 12% in [10]; 38% in [11]; 38% in [12]; 47% in experiment [13].
`NS(=O)(=O)c1ccc(Nc2nccc(Nc3ccc4[nH]ncc4c3)n2)cc1`: the inhibition of growth at 10 µM in [1] is 47%; in the experiment on NCI-H226, 28%; with NCI-H522, 57%; in [2] it was -4%; in experiment [3], 5%; with HT-29, 9%. Also, the inhibition of growth at 10 µM in experiment [4] was -11%; in experiment [5], 12%; in experiment [6] it was 2%; in the experiment with U-251, 19%; in experiment [7], 14%; in experiment [8], -10%. For the same compound, the inhibition of growth at 10 µM in experiment [9] is -10%; in [10], -4%; in [11], -16%; in [12], 17%; in experiment [13], -6%.
In the case of `Fc1ccc(Nc2nccc(Nc3ccc4[nH]ncc4c3)n2)cc1`, the inhibition of growth at 10 µM in experiment [1] was found to be 81%; in the experiment with NCI-H226, 53%; in the experiment on NCI-H522, 57%; in experiment [2], 39%; in experiment [3], 45%; in the experiment on HT-29, 47%. In addition, the inhibition of growth at 10 µM in experiment [4] was 31%; in experiment [5], 29%; in experiment [6], 11%; in the experiment on U-251, 35%; in experiment [7] it was 32%; in experiment [8], 14%. For the same compound, the inhibition of growth at 10 µM worked out at 32% in experiment [9]; 24% in experiment [10]; 38% in [11]; 35% in experiment [12]; 33% in [13].

The record behind these values is ChEMBL document CHEMBL3817755, “Design, synthesis and biological evaluation of indazolepyrimidine based derivatives as anticancer agents with anti-angiogenic and antiproliferative activities” (Medchemcomm, 2016).
